Measured values taken from BindingDB's records for doi:10.1021/np010194b (Kyungpook National University, 2002).
Where a SMILES comes first, the peptide text is derived from it. Bridges are numbered along the chain shown (N, C = ends).

Target: Prolyl endopeptidase (Flavobacterium meningosepticum)
Assay: Inhibition of Flavobacterium meningosepticum PEP

CC[C@H](C)[C@H](NC(=O)[C@H](Cc1ccccc1)NC(=O)[C@@H](NC(=O)[C@H](Cc1cnc[nH]1)NC(=O)CNC(=O)CNC(=O)[C@H](Cc1ccccc1)NC(=O)[C@H](CC(C)C)NC(=O)[C@@H]1CC(=O)NCC(=O)N[C@@H](Cc2ccc(O)cc2)C(=O)N2CCC[C@H]2C(=O)N[C@@H](Cc2c[nH]c3ccccc23)C(=O)N[C@@H](Cc2c[nH]c3ccccc23)C(=O)N[C@@H](CC(=O)O)C(=O)N[C@@H](Cc2ccc(O)cc2)C(=O)N[C@@H](CCCNC(=N)N)C(=O)N1)[C@@H](C)O)C(=O)N[C@@H](CO)C(=O)N1CCC[C@H]1C(=O)O [propeptin] (GYPWWDYRDLFGGHTFISP-OH; lactam N-9) was tested, and the IC50 was 1.1 µM.
